In PubChem BioAssay AID256 (DTP/NCI, 2004):
“And” between values parts separate entries of the source, which are not always exact repeats. Equal entries are not always repeated. Inconclusive results and toxic doses are left out. The calls were made as follows: active = survival T/C of 150% or more; inactive = T/C below 125% in these data.

Tested on: CD2F1 mice, L1210 leukemia ip, survival T/C
Experiment: NCI In Vivo Anticancer Drug Screen. Data for tumor model L1210 Leukemia (intraperitoneal) in CD2F1 (CDF1) mice
Conditions: higher = longer survival
Summary of the method: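 Ratio T/C, where T is the treated-group value and C the vehicle-dosed control value, from mice implanted with a transplantable tumor.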

[1] = endpoint: mean survival time, dose: 100.0 mg/kg/injection, schedule: Q01DX009 (ip), vehicle: saline
[2] = endpoint: mean survival time, dose: 100.0 mg/kg/injection, schedule: Q04DX003 (ip), vehicle: saline
[3] = endpoint: mean survival time, dose: 200.0 mg/kg/injection, schedule: Q01DX009 (ip), vehicle: saline
[4] = endpoint: mean survival time, dose: 200.0 mg/kg/injection, schedule: Q04DX003 (ip), vehicle: saline
[5] = endpoint: mean survival time, dose: 100.0 mg/kg/injection, schedule: Q01DX001 (ip), vehicle: saline
[6] = endpoint: mean survival time, dose: 50.0 mg/kg/injection, schedule: Q01DX009 (ip), vehicle: saline with Tween-80
[7] = endpoint: mean survival time, dose: 100.0 mg/kg/injection, schedule: Q01DX009 (ip), vehicle: saline with Tween-80
[8] = endpoint: mean survival time, dose: 200.0 mg/kg/injection, schedule: Q01DX009 (ip), vehicle: saline with Tween-80
[9] = endpoint: mean survival time, dose: 100.0 mg/kg/injection, schedule: Q04DX003 (ip), vehicle: saline with Tween-80
[10] = endpoint: mean survival time, dose: 200.0 mg/kg/injection, schedule: Q04DX003 (ip), vehicle: saline with Tween-80
[11] = endpoint: mean survival time, dose: 400.0 mg/kg/injection, schedule: Q04DX003 (ip), vehicle: saline with Tween-80
[12] = endpoint: mean survival time, dose: 150.0 mg/kg/injection, schedule: Q01DX001 (ip), vehicle: saline
[13] = endpoint: mean survival time, dose: 400.0 mg/kg/injection, schedule: Q01DX009 (ip), vehicle: saline
[14] = endpoint: mean survival time, dose: 50.0 mg/kg/injection, schedule: Q01DX001 (ip), vehicle: saline with Tween-80
[15] = endpoint: mean survival time, dose: 200.0 mg/kg/injection, schedule: Q01DX001 (ip), vehicle: saline with Tween-80
[16] = endpoint: mean survival time, dose: 400.0 mg/kg/injection, schedule: Q01DX001 (ip), vehicle: saline with Tween-80
[17] = endpoint: mean survival time, dose: 12.5 mg/kg/injection, schedule: Q01DX009 (ip), vehicle: saline with Tween-80
[18] = endpoint: mean survival time, dose: 25.0 mg/kg/injection, schedule: Q01DX009 (ip), vehicle: saline with Tween-80
[19] = endpoint: mean survival time, dose: 25.0 mg/kg/injection, schedule: Q04DX002 (ip), vehicle: saline with Tween-80
[20] = endpoint: mean survival time, dose: 50.0 mg/kg/injection, schedule: Q04DX002 (ip), vehicle: saline with Tween-80
[21] = endpoint: mean survival time, dose: 100.0 mg/kg/injection, schedule: Q04DX002 (ip), vehicle: saline with Tween-80
[22] = endpoint: mean survival time, dose: 400.0 mg/kg/injection, schedule: Q01DX009 (ip), vehicle: saline with Tween-80
[23] = endpoint: mean survival time, dose: 100.0 mg/kg/injection, schedule: Q01DX001 (ip), vehicle: saline with Tween-80
[24] = endpoint: mean survival time, dose: 200.0 mg/kg/injection, schedule: Q04DX002 (ip), vehicle: saline with Tween-80
[25] = endpoint: mean survival time, dose: 400.0 mg/kg/injection, schedule: Q04DX002 (ip), vehicle: saline with Tween-80

Measured: T/C

CN1CCC(CO)C1 (stereo unspecified)
inactive: endpoint: mean survival time, dose: 25.0 mg/kg/injection, schedule: Q01DX009 (ip), vehicle: water 91 % of control | endpoint: mean survival time, dose: 50.0 mg/kg/injection, schedule: Q01DX009 (ip), vehicle: saline 109 % of control | endpoint: mean survival time, dose: 50.0 mg/kg/injection, schedule: Q01DX009 (ip), vehicle: water 87 % of control | [1] 101 % of control | endpoint: mean survival time, dose: 100.0 mg/kg/injection, schedule: Q01DX009 (ip), vehicle: water 87 % of control | [2] 96 % of control | [3] 101 % of control | endpoint: mean survival time, dose: 200.0 mg/kg/injection, schedule: Q01DX009 (ip), vehicle: water 89 % of control | [4] 97 % of control

CC(C)c1cc2cc(Br)ccc2o1
inactive: [5] 103 % of control | endpoint: mean survival time, dose: 200.0 mg/kg/injection, schedule: Q01DX001 (ip), vehicle: saline 95 % of control

O=C(Nc1cc(Cl)c(Cl)cc1Cl)C1CC1
inactive: [6] 119 % of control | [7] 101 % of control | [8] 101 % of control

O=[N+]([O-])c1ccc(C2C3C(c4ccccc4)=NCN32)cc1 (stereo unspecified)
inactive: [9] 96 % of control | [10] 97 % of control | [11] 92 % of control

Nc1nc2nc(-c3ccccc3)nc(N)c2nc1-c1ccc(N(CCO)CCO)cc1
inactive: endpoint: mean survival time, dose: 45.0 mg/kg/injection, schedule: Q01DX001 (ip), vehicle: saline 100 % of control | endpoint: mean survival time, dose: 67.0 mg/kg/injection, schedule: Q01DX001 (ip), vehicle: saline 97 % of control | [5] 97 % of control | [12] 96 % of control

OC1OCCOC1O (stereo unspecified)
inactive: [1] 114 % of control | [2] 99 % of control | [3] 114 % of control | [4] 99 % of control | [13] 121 % of control | endpoint: mean survival time, dose: 400.0 mg/kg/injection, schedule: Q04DX003 (ip), vehicle: saline 115 % of control

CNc1ncnc2[nH]cc([N+](=O)[O-])c12
inactive: endpoint: mean survival time, dose: 75.0 mg/kg/injection, schedule: Q01DX001 (ip), vehicle: saline 96 % of control | [12] 106 % of control | endpoint: mean survival time, dose: 300.0 mg/kg/injection, schedule: Q01DX001 (ip), vehicle: saline 106 % of control

CCOC(=O)C1=C(C)/C(=C/c2[n-]c(C)c(C(=O)OCC)c2C)N=C1C.CCOC(=O)C1=C(C)/C(=C/c2[n-]c(C)c(C(=O)OCC)c2C)N=C1C.[Co+2]
inactive: [14] 91 % of control | [15] 87 % of control | [16] 91 % of control

c1cncc(C2OCCO2)c1
inactive: [1] 105 % of control | [3] 100 % of control | [13] 100 % of control

Clc1cc(CBr)c(CBr)cc1Cl
inactive: [17] 107 % of control | [18] 97 % of control | [6] 100 % of control

CCOC(=O)C(CCC(O)C#N)(NC(C)=O)C(=O)OCC (stereo unspecified)
inactive: [19] 101 % of control | [20] 96 % of control | [21] 100 % of control

Cc1cc(NC(=O)NCCOc2ccc(N3C(N)=NC(N)=NC3(C)C)cc2Cl)ccc1S(=O)(=O)F
inactive: endpoint: mean survival time, dose: 12.5 mg/kg/injection, schedule: Q04DX003 (ip), vehicle: saline with Tween-80 107 % of control | endpoint: mean survival time, dose: 25.0 mg/kg/injection, schedule: Q04DX003 (ip), vehicle: saline with Tween-80 102 % of control | endpoint: mean survival time, dose: 50.0 mg/kg/injection, schedule: Q04DX003 (ip), vehicle: saline with Tween-80 91 % of control

COC(=O)C1CN=NC1C(=O)OC (stereo unspecified)
inactive: [7] 95 % of control | [8] 95 % of control | [22] 91 % of control

CCC(C(=O)O)C(=O)O.[NH2-].[NH2-].[Pt+2]
inactive: endpoint: mean survival time, dose: 12.5 mg/kg/injection, schedule: Q04DX003 (ip), vehicle: saline 101 % of control | [4] 87 % of control | endpoint: median survival time, dose: 3.12 mg/kg/injection, schedule: Q01DX009 (ip), vehicle: saline 108 % of control | endpoint: median survival time, dose: 100.0 mg/kg/injection, schedule: Q01DX009 (ip), vehicle: saline 95 % of control

CC(=O)N(C(C)=O)c1nc(Br)c2ccccc2c1-c1ccc([N+](=O)[O-])cc1
inactive: endpoint: mean survival time, dose: 50.0 mg/kg/injection, schedule: Q04DX003 (ip), vehicle: other 100 % of control | endpoint: mean survival time, dose: 100.0 mg/kg/injection, schedule: Q04DX003 (ip), vehicle: other 94 % of control | endpoint: mean survival time, dose: 200.0 mg/kg/injection, schedule: Q04DX003 (ip), vehicle: other 94 % of control | endpoint: mean survival time, dose: 400.0 mg/kg/injection, schedule: Q04DX003 (ip), vehicle: other 88 % of control

O=C(CNC(=O)Nc1cccc(C(F)(F)F)c1)N/N=C/c1ccccc1O
inactive: [17] 95 % of control | [18] 87 % of control | [6] 88 % of control | [7] 100 % of control | [8] 103 % of control

CN=C1CCCCN1
inactive: endpoint: mean survival time, dose: 100.0 mg/kg/injection, schedule: Q04DX003 (ip), vehicle: saline sonified 103 % of control | endpoint: mean survival time, dose: 200.0 mg/kg/injection, schedule: Q04DX003 (ip), vehicle: saline sonified 104 % of control | endpoint: mean survival time, dose: 400.0 mg/kg/injection, schedule: Q04DX003 (ip), vehicle: saline sonified 103 % of control

COC(=O)CC1C2CCc3cc(OC)ccc3C2CCC1(C)C(=O)OC (stereo unspecified)
inactive: [7] 97 % of control | [8] 101 % of control | [22] 94 % of control

CCC(=O)OC1(c2ccccc2)CCN(CCCc2ccccc2Cl)CC1
inactive: endpoint: mean survival time, dose: 25.0 mg/kg/injection, schedule: Q01DX001 (ip), vehicle: saline with Tween-80 108 % of control | [19] 95 % of control | [14] 100 % of control | [20] 98 % of control | [23] 96 % of control and 98 % of control | [21] 95 % of control

Cc1[nH]nc2[nH]cnc(=S)c12
inactive: endpoint: mean survival time, dose: 12.5 mg/kg/injection, schedule: Q01DX005 (ip), vehicle: saline with Tween-80 90 % of control | endpoint: mean survival time, dose: 25.0 mg/kg/injection, schedule: Q01DX005 (ip), vehicle: saline with Tween-80 88 % of control | endpoint: mean survival time, dose: 50.0 mg/kg/injection, schedule: Q01DX005 (ip), vehicle: saline with Tween-80 87 % of control | endpoint: mean survival time, dose: 100.0 mg/kg/injection, schedule: Q01DX005 (ip), vehicle: saline with Tween-80 94 % of control | endpoint: mean survival time, dose: 200.0 mg/kg/injection, schedule: Q01DX005 (ip), vehicle: saline with Tween-80 96 % of control

COc1cc(Cl)c(CCBr)cc1OC
inactive: endpoint: mean survival time, dose: 50.0 mg/kg/injection, schedule: Q01DX009 (ip), vehicle: Klucel (hydroxypropylcellulose) (HPC) 104 % of control | endpoint: mean survival time, dose: 100.0 mg/kg/injection, schedule: Q01DX009 (ip), vehicle: Klucel (hydroxypropylcellulose) (HPC) 89 % of control | endpoint: mean survival time, dose: 200.0 mg/kg/injection, schedule: Q01DX009 (ip), vehicle: Klucel (hydroxypropylcellulose) (HPC) 96 % of control

O=C(/C=C/c1ccccc1)NC(=S)Nc1cc(Cl)ccc1Cl
inactive: [6] 95 % of control | [23] 90 % of control | [7] 112 % of control and 98 % of control and 100 % of control | [21] 95 % of control and 102 % of control | [9] 104 % of control | [15] 100 % of control | [8] 97 % of control and 98 % of control and 105 % of control | [24] 95 % of control and 110 % of control | [10] 104 % of control | [16] 105 % of control | [22] 115 % of control and 98 % of control and 100 % of control | [25] 105 % of control and 111 % of control | [11] 106 % of control

COc1ncn(C2CC(OC(=O)c3ccc(C)cc3)C(COC(=O)c3ccc(C)cc3)O2)c(=O)n1 (stereo unspecified)
inactive: [10] 86 % of control

O=C1C=C(NCCO)C(=O)C=C1NCCO
inactive: [23] 98 % of control | [15] 90 % of control | [16] 95 % of control

COc1ccccc1NC(=O)Nc1cc([N+](=O)[O-])ccc1OC
inactive: [21] 96 % of control | [24] 93 % of control | [25] 86 % of control
